Experimental data as given in patent publication US11292796B2 (SIGNAL PHARMACEUTICALS, LLC, priority 2008, dated 2022).

Molecular target: T1, mTOR (Homo sapiens, UniProt P42345)
T1 construct: purchased Invitrogen PR8683A
Assay: mTOR HTR-FRET assay
Type: biochemical
Conditions: read-out: Act. Level (IC50 in mTor HTR-FRET assay)
Method in brief: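 Test compounds, taken from 10 mM DMSO stocks and diluted, were mixed with mTOR enzyme (0.200 μg/mL) in Tris buffer pH 7.4 with 100 mM NaCl, 0.1% Tween-20 and 1 mM DTT. ATP/substrate addition initiated the reaction, alongside compound-free controls.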

T1 sequence (P42345 1360-2549 limits assumed): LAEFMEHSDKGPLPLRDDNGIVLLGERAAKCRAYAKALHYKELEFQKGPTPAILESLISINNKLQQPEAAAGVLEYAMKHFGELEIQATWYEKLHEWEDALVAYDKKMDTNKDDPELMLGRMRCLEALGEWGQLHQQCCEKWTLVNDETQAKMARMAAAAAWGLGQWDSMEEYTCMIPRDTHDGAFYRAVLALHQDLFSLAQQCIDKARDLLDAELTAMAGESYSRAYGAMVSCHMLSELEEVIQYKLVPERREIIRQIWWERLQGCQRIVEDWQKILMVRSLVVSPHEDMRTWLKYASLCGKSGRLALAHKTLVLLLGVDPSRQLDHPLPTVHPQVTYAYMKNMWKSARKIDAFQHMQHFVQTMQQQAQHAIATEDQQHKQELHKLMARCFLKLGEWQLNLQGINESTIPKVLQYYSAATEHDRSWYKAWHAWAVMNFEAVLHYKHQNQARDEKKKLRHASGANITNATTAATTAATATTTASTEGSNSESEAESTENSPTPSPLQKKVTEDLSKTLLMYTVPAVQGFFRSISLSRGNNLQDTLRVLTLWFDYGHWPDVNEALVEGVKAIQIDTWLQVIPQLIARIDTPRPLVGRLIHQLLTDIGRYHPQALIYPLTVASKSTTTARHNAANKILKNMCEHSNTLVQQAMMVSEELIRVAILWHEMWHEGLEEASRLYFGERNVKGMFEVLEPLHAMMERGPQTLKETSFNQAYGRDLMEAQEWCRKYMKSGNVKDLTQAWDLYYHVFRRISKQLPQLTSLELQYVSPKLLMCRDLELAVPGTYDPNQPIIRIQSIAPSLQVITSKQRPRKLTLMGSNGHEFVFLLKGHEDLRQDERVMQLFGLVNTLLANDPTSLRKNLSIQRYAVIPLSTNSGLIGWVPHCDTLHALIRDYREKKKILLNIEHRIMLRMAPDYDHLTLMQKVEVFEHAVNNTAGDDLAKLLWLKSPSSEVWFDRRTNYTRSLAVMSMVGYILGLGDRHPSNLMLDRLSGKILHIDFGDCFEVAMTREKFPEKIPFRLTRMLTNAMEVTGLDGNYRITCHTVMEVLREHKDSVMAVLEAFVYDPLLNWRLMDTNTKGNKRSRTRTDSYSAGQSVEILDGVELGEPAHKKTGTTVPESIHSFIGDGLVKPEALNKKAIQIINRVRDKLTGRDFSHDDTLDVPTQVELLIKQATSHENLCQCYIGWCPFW

SMILES | IC50 [nM]
O=C1CNc2ncc(-c3ccc(O)nc3)nc2N1CCC1CCOCC1 [Example 185, 7-(6-hydroxypyridin-3-yl)-1-(2-(tetrahydro-2H-pyran-4-yl)ethyl)-3,4-dihydropyrazino[2,3-b]pyrazin-2(1H)-one] | 1000 to 10000
COCCN1C(=O)CNc2ncc(-c3ccc(-c4cc[nH]n4)cc3)nc21 [Example 186, 7-(4-(1H-pyrazol-3-yl)phenyl)-1-(2-methoxyethyl)-3,4-dihydropyrazino[2,3-b]pyrazin-2(1H)-one] | 0.005 to 250
O=C1CNc2ncc(-c3cccnc3)nc2N1CCC1CCOCC1 [Example 187, 7-(pyridin-3-yl)-1-(2-(tetrahydro-2H-pyran-4-yl)ethyl)-3,4-dihydropyrazino[2,3-b]pyrazin-2(1H)-one] | 500 to 1000
COCCN1C(=O)CNc2ncc(-c3cccc4[nH]ncc34)nc21 [Example 188, 7-(1H-indazol-4-yl)-1-(2-methoxyethyl)-3,4-dihydropyrazino[2,3-b]pyrazin-2(1H)-one] | 1000 to 10000
COCCN1C(=O)CNc2ncc(-c3ccc4cn[nH]c4c3)nc21 [Example 189, 7-(1H-indazol-6-yl)-1-(2-methoxyethyl)-3,4-dihydropyrazino[2,3-b]pyrazin-2(1H)-one] | 1000 to 10000
O=C1CNc2ncc(-c3cncnc3)nc2N1CCC1CCOCC1 [Example 190, 7-(pyrimidin-5-yl)-1-(2-(tetrahydro-2H-pyran-4-yl)ethyl)-3,4-dihydropyrazino[2,3-b]pyrazin-2(1H)-one] | 1000 to 10000
COc1ccc(-c2cnc3c(n2)N(CCC2CCOCC2)C(=O)CN3)cn1 [Example 191, 7-(6-methoxypyridin-3-yl)-1-(2-(tetrahydro-2H-pyran-4-yl)ethyl)-3,4-dihydropyrazino[2,3-b]pyrazin-2(1H)-one] | 500 to 1000
COCCN1C(=O)CNc2ncc(-c3cnc4[nH]ccc4c3)nc21 [Example 192, 1-(2-methoxyethyl)-7-(1H-pyrrolo[2,3-b]pyridin-5-yl)-3,4-dihydropyrazino[2,3-b]pyrazin-2(1H)-one] | 0.005 to 250
CCN1C(=O)CNc2ncc(-c3cnc4[nH]ccc4c3)nc21 [Example 193, 1-ethyl-7-(1H-pyrrolo[2,3-b]pyridin-5-yl)-3,4-dihydropyrazino[2,3-b]pyrazin-2(1H)-one] | 250 to 500
CCN1C(=O)CNc2ncc(-c3cccc4[nH]ncc34)nc21 [Example 194, 1-ethyl-7-(1H-indazol-4-yl)-3,4-dihydropyrazino[2,3-b]pyrazin-2(1H)-one] | 1000 to 10000
O=C1CNc2ncc(-c3ccncc3)nc2N1CCC1CCOCC1 [Example 195, 7-(pyridin-4-yl)-1-(2-(tetrahydro-2H-pyran-4-yl)ethyl)-3,4-dihydropyrazino[2,3-b]pyrazin-2(1H)-one] | 1000 to 10000
Nc1ccc(-c2cnc3c(n2)N(CCC2CCOCC2)C(=O)CN3)cn1 [Example 196, 7-(6-aminopyridin-3-yl)-1-(2-(tetrahydro-2H-pyran-4-yl)ethyl)-3,4-dihydropyrazino[2,3-b]pyrazin-2(1H)-one] | 0.005 to 250
Cc1nc(-c2nnc[nH]2)ccc1-c1cnc2c(n1)N(C)C(=O)CN2 [Example 197, 1-methyl-7-(2-methyl-6-(4H-1,2,4-triazol-3-yl)pyridin-3-yl)-3,4-dihydropyrazino[2,3-b]pyrazin-2(1H)-one] | 0.005 to 250
CO[C@H]1CC[C@H](N2C(=O)CNc3ncc(-c4ccc(C(C)(C)O)[n+]([O-])c4)nc32)CC1 [Example 198, 2-(2-hydroxypropan-2-yl)-5-(8-(trans-4-methoxycyclohexyl)-7-oxo-5,6,7,8-tetrahydropyrazino[2,3-b]pyrazin-2-yl)pyridine 1-oxide] | 1000 to 10000
Cc1cc(C(N)=O)ncc1-c1cnc2c(n1)N(CC1CCOCC1)C(=O)CN2 [Example 199, 4-methyl-5-(7-oxo-8-((tetrahydro-2H-pyran-4-yl)methyl)-5,6,7,8-tetrahydropyrazino[2,3-b]pyrazin-2-yl)picolinamide] | 1000 to 10000
CO[C@H]1CC[C@@H](CN2C(=O)CNc3ncc(-c4cnc(C(N)=O)cc4C)nc32)CC1 [Example 200, 5-(8-((cis-4-methoxycyclohexyl)methyl)-7-oxo-5,6,7,8-tetrahydropyrazino[2,3-b]pyrazin-2-yl)-4-methylpicolinamide] | 1000 to 10000
O=C1CNc2ncc(-c3cn[nH]c3)nc2N1CCC1CCOCC1 [Example 201, 7-(1H-pyrazol-4-yl)-1-(2-(tetrahydro-2H-pyran-4-yl)ethyl)-3,4-dihydropyrazino[2,3-b]pyrazin-2(1H)-one] | 1000 to 10000
CO[C@H]1CC[C@H](N2C(=O)CNc3ncc(-c4cnc(-c5nc[nH]n5)cc4C)nc32)CC1 [Example 202, 1-(trans-4-methoxycyclohexyl)-7-(4-methyl-6-(1H-1,2,4-triazol-3-yl)pyridin-3-yl)-3,4-dihydropyrazino[2,3-b]pyrazin-2(1H)-one] | 0.005 to 250

SMILES | IC50 [nM]
Cc1nc(-c2nnc[nH]2)ccc1-c1cnc2c(n1)N(Cc1cccc(C#N)c1)C(=O)CN2 [Example 203, 3-((7-(2-methyl-6-(4H-1,2,4-triazol-3-yl)pyridin-3-yl)-2-oxo-3,4-dihydropyrazino[2,3-b]pyrazin-1(2H)-yl)methyl)benzonitrile] | 0.005 to 250
CO[C@H]1CC[C@H](CN2C(=O)CNc3ncc(-c4cnc(-c5nc[nH]n5)cc4C)nc32)CC1 [Example 204, 1-((trans-4-methoxycyclohexyl)methyl)-7-(4-methyl-6-(1H-1,2,4-triazol-3-yl)pyridin-3-yl)-3,4-dihydropyrazino[2,3-b]pyrazin-2(1H)-one] | 0.005 to 250
NC(=O)c1cccc(-c2cnc3c(n2)N(CCC2CCOCC2)C(=O)CN3)c1 [Example 205, 3-(7-oxo-8-(2-(tetrahydro-2H-pyran-4-yl)ethyl)-5,6,7,8-tetrahydropyrazino[2,3-b]pyrazin-2-yl)benzamide] | 1000 to 10000
CO[C@H]1CC[C@H](CN2C(=O)CNc3ncc(-c4cnc(C(N)=O)cc4C)nc32)CC1 [Example 206, 5-(8-((trans-4-methoxycyclohexyl)methyl)-7-oxo-5,6,7,8-tetrahydropyrazino[2,3-b]pyrazin-2-yl)-4-methylpicolinamide] | 1000 to 10000
CC(C)(O)c1ccc(-c2cnc3c(n2)N(Cc2cccc(C#N)c2)C(=O)CN3)cn1 [Example 207, 3-((7-(6-(2-hydroxypropan-2-yl)pyridin-3-yl)-2-oxo-3,4-dihydropyrazino[2,3-b]pyrazin-1(2H)-yl)methyl)benzonitrile] | 0.005 to 250
CO[C@@H]1CC[C@@H](N2C(=O)CNc3ncc(-c4ccc(C(C)(C)O)nc4)nc32)C1 [Example 208, 7-(6-(2-hydroxypropan-2-yl)pyridin-3-yl)-1-((1R,3R)-3-methoxycyclopentyl)-3,4-dihydropyrazino[2,3-b]pyrazin-2(1H)-one] | 0.005 to 250
CO[C@@H]1CC[C@H](N2C(=O)CNc3ncc(-c4ccc(C(C)(C)O)nc4)nc32)C1 [Example 209, 7-(6-(2-hydroxypropan-2-yl)pyridin-3-yl)-1-((1S,3R)-3-methoxycyclopentyl)-3,4-dihydropyrazino[2,3-b]pyrazin-2(1H)-one] | 0.005 to 250
CO[C@H]1CC[C@H](N2C(=O)CNc3ncc(-c4ccc(C(C)(C)O)nc4)nc32)C1 [Example 210, 7-(6-(2-hydroxypropan-2-yl)pyridin-3-yl)-1-((1S,3S)-3-methoxycyclopentyl)-3,4-dihydropyrazino[2,3-b]pyrazin-2(1H)-one] | 0.005 to 250
CO[C@H]1CC[C@@H](N2C(=O)CNc3ncc(-c4ccc(C(C)(C)O)nc4)nc32)C1 [Example 211, 7-(6-(2-hydroxypropan-2-yl)pyridin-3-yl)-1-((1R,3S)-3-methoxycyclopentyl)-3,4-dihydropyrazino[2,3-b]pyrazin-2(1H)-one] | 0.005 to 250
O=C1CNc2ncc(-c3ccc4cn[nH]c4c3)nc2N1CCC1CCOCC1 [Example 212, 7-(1H-indazol-6-yl)-1-(2-(tetrahydro-2H-pyran-4-yl)ethyl)-3,4-dihydropyrazino[2,3-b]pyrazin-2(1H)-one] | 0.005 to 250
CC(C)(O)c1ccc(-c2cnc3c(n2)N(CCN2CCOCC2)C(=O)CN3)cn1 [Example 216, 7-(6-(2-hydroxypropan-2-yl)pyridin-3-yl)-1-(2-morpholinoethyl)-3,4-dihydropyrazino[2,3-b]pyrazin-2(1H)-one] | 0.005 to 250
O=C1CNc2ncc(-c3cnc4nc[nH]c4c3)nc2N1CCC1CCOCC1 [Example 218, 7-(1H-imidazo[4,5-b]pyridin-6-yl)-1-(2-(tetrahydro-2H-pyran-4-yl)ethyl)-3,4-dihydropyrazino[2,3-b]pyrazin-2(1H)-one] | 1000 to 10000
NC(=O)c1ccc(-c2cnc3c(n2)N(CCC2CCOCC2)C(=O)CN3)cc1 [Example 222, 4-(7-oxo-8-(2-(tetrahydro-2H-pyran-4-yl)ethyl)-5,6,7,8-tetrahydropyrazino[2,3-b]pyrazin-2-yl)benzamide] | 0.005 to 250
O=C1CNc2ncc(-c3ccc4[nH]ncc4c3)nc2N1CCC1CCOCC1 [Example 223, 7-(1H-indazol-5-yl)-1-(2-(tetrahydro-2H-pyran-4-yl)ethyl)-3,4-dihydropyrazino[2,3-b]pyrazin-2(1H)-one] | 500 to 1000
O=C1CNc2ncc(-c3cnc4[nH]ccc4c3)nc2N1CCC1CCOCC1 [Example 224, 7-(1H-pyrrolo[2,3-b]pyridin-5-yl)-1-(2-(tetrahydro-2H-pyran-4-yl)ethyl)-3,4-dihydropyrazino[2,3-b]pyrazin-2(1H)-one] | 0.005 to 250
CO[C@@H]1CC[C@H](N2C(=O)CNc3ncc(-c4ccc(-c5nnc[nH]5)nc4C)nc32)C1 [Example 226, 1-((1S,3R)-3-methoxycyclopentyl)-7-(2-methyl-6-(4H-1,2,4-triazol-3-yl)pyridin-3-yl)-3,4-dihydropyrazino[2,3-b]pyrazin-2(1H)-one] | 0.005 to 250
CO[C@@H]1CC[C@@H](N2C(=O)CNc3ncc(-c4ccc(-c5nnc[nH]5)nc4C)nc32)C1 [Example 227, 1-((1R,3R)-3-methoxycyclopentyl)-7-(2-methyl-6-(4H-1,2,4-triazol-3-yl)pyridin-3-yl)-3,4-dihydropyrazino[2,3-b]pyrazin-2(1H)-one] | 0.005 to 250
